# Test results: ChEMBL document CHEMBL1128387, “Sigma ligands with subnanomolar affinity and preference for the sigma 2 binding site. 2. Spiro-joined benzofuran, isobenzofuran, and benzopyran piperidines” (J Med Chem, 1995)
# Key:
# [1] = molecular target: Sigma non-opioid intracellular receptor 1 (Rattus norvegicus, UniProt Q9R0C9); assay: Compound was evaluated for the binding affinity towards Sigma receptor type 1 using radioligand ([3H]-(+)- Pentazocine) binding assay.
# [2] = molecular target: Sigma intracellular receptor 2 (Rattus norvegicus, UniProt Q5U3Y7); assay: Binding affinity towards Sigma receptor type 2 in whole rat brain homogenates except cerebellum using radioligand ([3H]DTG) binding assay.; format: tissue-based
# Chain of Sigma intracellular receptor 2 (Q5U3Y7 whole entry, looked up): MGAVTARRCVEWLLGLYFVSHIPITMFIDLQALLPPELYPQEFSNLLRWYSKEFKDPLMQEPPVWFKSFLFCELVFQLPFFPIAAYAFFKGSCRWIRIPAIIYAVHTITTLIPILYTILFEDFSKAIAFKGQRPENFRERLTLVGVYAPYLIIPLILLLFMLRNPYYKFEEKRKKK
# Chain of Sigma non-opioid intracellular receptor 1 (Q9R0C9 whole entry): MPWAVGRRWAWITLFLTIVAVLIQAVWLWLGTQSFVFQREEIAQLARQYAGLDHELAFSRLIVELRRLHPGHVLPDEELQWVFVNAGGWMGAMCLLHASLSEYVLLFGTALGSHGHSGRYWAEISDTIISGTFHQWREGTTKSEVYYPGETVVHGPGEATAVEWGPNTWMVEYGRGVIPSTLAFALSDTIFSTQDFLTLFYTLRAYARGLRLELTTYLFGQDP
Compound,IC50 [1] [nM],IC50 [2] [nM]
Fc1ccc(-n2cc(CCCCN3CCC4(CC3)SCc3ccccc34)c3ccccc32)cc1,35,–
Fc1ccc(-n2cc(CCCCN3CCC4(CC3)OCc3cccc(F)c34)c3ccccc32)cc1,150,–
CCN1CCC2(CC1)OCc1ccccc12,140,270
Fc1ccc(-n2cc(CCCCN3CCC4(CC3)Cc3ccccc3O4)c3ccccc32)cc1,360,–
c1ccc(CN2CCC3(CCCc4ccccc43)CC2)cc1,–,12
c1ccc(CCCCN2CCC3(CC2)OCc2ccccc23)cc1,0.27,–
Fc1ccc(-n2cc(CCCCN3CCC4(CC3)COc3ccccc34)c3ccccc32)cc1,3.8,–
Fc1ccc(-n2cc(CCCCN3CCC4(CC3)COc3ccccc3C4)c3ccccc32)cc1,200,–
Fc1ccc(-n2cc(CCCCN3CCC4(CCOc5ccccc54)CC3)c3ccccc32)cc1,7,–
c1ccc2c(c1)COC21CCN(CCCOC2CCCCC2)CC1,0.4,–
Fc1ccc(-n2cc(CCCCN3CCC4(CC3)OCc3c(F)cccc34)c3ccccc32)cc1,290,–
c1ccc(CCCN2CCC3(CC2)OCc2ccccc23)cc1,0.56,–
Fc1ccc(-n2cc(CCCCN3CCC4(CC3)OCc3c(C(F)(F)F)cccc34)c3ccccc32)cc1,180,–
Fc1ccc(-n2cc(CCCCN3CCC4(CC3)Oc3ccccc3O4)c3ccccc32)cc1,430,–
CC(C)N1CCC2(CC1)OCc1ccccc12,31,49
c1ccc2c(c1)COC21CCN(CCCCC2CCCCC2)CC1,1.5,–
Fc1ccc(-n2cc(CCCCN3CCC4(CC3)Cc3ccccc3CO4)c3ccccc32)cc1,23,–
Fc1ccc(-n2cc(CCCCN3CCC4(CC3)COCc3ccccc34)c3ccccc32)cc1,3.4,–
CCCN1CCC2(CC1)OCc1ccccc12,4.7,23
Cc1ccc2c(c1)COC21CCN(CCCCc2cn(-c3ccc(F)cc3)c3ccccc23)CC1,9.5,2.3
c1ccc(CCCCCN2CCC3(CC2)OCc2ccccc23)cc1,0.82,–
c1ccc2c(c1)COC21CCNCC1,630,11000
c1ccc(CCN2CCC3(CC2)OCc2ccccc23)cc1,2.2,–
Fc1ccc(-n2cc(CCCCN3CCC4(CC3)OCCc3ccccc34)c3ccccc32)cc1,53,–
